# Reference: ChEMBL document CHEMBL1201862, “PubChem BioAssay data set” (2004)
#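 Interpolation was linear, between the two tested concentrations surrounding the appropriate level; five concentrations were tested over 48 hours in 96-well plates. GI50: concentration for 50% inhibition of growth.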 Calls of active or inactive are those of the source. No stated cut-off is given here; in the data, active = GI50 up to about 1.1 µM and inactive = higher.
# Columns and labels:
# Test in all cases: inhibition of tumour cell growth, NCI panel, 48 h
# 786-0 = test system: 786-0
# A498 = test system: A498
# A549 = test system: A549
# ACHN = test system: ACHN
# CAKI-1 = test system: CAKI-1
# CCRF-CEM = test system: CCRF-CEM
# COLO 205 = test system: COLO 205
# DU-145 = test system: DU-145
# EKVX = test system: EKVX
# HCC 2998 = test system: HCC 2998
# HCT-116 = test system: HCT-116
# HCT-15 = test system: HCT-15
# HL-60 = test system: HL-60
# HOP-62 = test system: HOP-62
# HOP-92 = test system: HOP-92
# HT-29 = test system: HT-29
# Hs-578T = test system: Hs-578T
# IGROV-1 = test system: IGROV-1
# K562 = test system: K562
# KM12 = test system: KM12
# LOX IMVI = test system: LOX IMVI
# M14 = test system: M14
# MCF7 = test system: MCF7
# MDA-MB-231 = test system: MDA-MB-231
# MDA-MB-435 = test system: MDA-MB-435
# MDA-N = test system: MDA-N
# MOLT-4 = test system: MOLT-4
# Malme-3M = test system: Malme-3M
# NCI-H226 = test system: NCI-H226
# NCI-H23 = test system: NCI-H23
# NCI-H460 = test system: NCI-H460
# NCI-H522 = test system: NCI-H522
# NCI/ADR-RES = test system: NCI/ADR-RES
# OVCAR-3 = test system: OVCAR-3
# OVCAR-4 = test system: OVCAR-4
# OVCAR-5 = test system: OVCAR-5
# OVCAR-8 = test system: OVCAR-8
# PC-3 = test system: PC-3
# RPMI-8226 = test system: RPMI-8226
# RXF 393 = test system: RXF 393
# SF-268 = test system: SF-268
# SF-295 = test system: SF-295
# SF-539 = test system: SF-539
# SK-MEL-28 = test system: SK-MEL-28
# SK-MEL-2 = test system: SK-MEL-2
# SK-MEL-5 = test system: SK-MEL-5
# SK-OV-3 = test system: SK-OV-3
# SN12C = test system: SN12C
# SNB-19 = test system: SNB-19
# SNB-75 = test system: SNB-75
# SR = test system: SR
# SW-620 = test system: SW-620
# T47D = test system: T47D
# TK-10 = test system: TK-10
# U-251 = test system: U-251
# UACC-257 = test system: UACC-257
# UACC-62 = test system: UACC-62
# UO-31 = test system: UO-31
structure (smiles),measurement,setting,value
c1cc2nnc1SCCSCCCSCCS2,GI50,786-0,67 µM (inactive)
same,GI50,A498,> 100 µM (inactive)
same,GI50,A549,> 100 µM (inactive)
same,GI50,ACHN,> 100 µM (inactive)
same,GI50,CAKI-1,> 100 µM (inactive)
same,GI50,CCRF-CEM,> 100 µM (inactive)
same,GI50,COLO 205,> 100 µM (inactive)
same,GI50,DU-145,2.86 µM (inactive)
same,GI50,EKVX,> 100 µM (inactive)
same,GI50,HCC 2998,> 100 µM (inactive)
same,GI50,HCT-116,> 100 µM (inactive)
same,GI50,HCT-15,> 100 µM
same,GI50,HL-60,> 100 µM (inactive)
same,GI50,HOP-62,35.2 µM (inactive)
same,GI50,HOP-92,46.5 µM (inactive)
same,GI50,HT-29,> 100 µM (inactive)
same,GI50,Hs-578T,> 100 µM (inactive)
same,GI50,IGROV-1,> 100 µM (inactive)
same,GI50,K562,> 100 µM (inactive)
same,GI50,KM12,> 100 µM (inactive)
same,GI50,LOX IMVI,> 100 µM (inactive)
same,GI50,M14,> 100 µM (inactive)
same,GI50,MCF7,> 100 µM (inactive)
same,GI50,MDA-MB-231,29.6 µM (inactive)
same,GI50,MDA-MB-435,> 100 µM (inactive)
same,GI50,MDA-N,> 100 µM (inactive)
same,GI50,MOLT-4,> 100 µM (inactive)
same,GI50,Malme-3M,> 100 µM (inactive)
same,GI50,NCI-H226,> 100 µM (inactive)
same,GI50,NCI-H23,> 100 µM (inactive)
same,GI50,NCI-H460,> 100 µM (inactive)
same,GI50,NCI-H522,> 100 µM (inactive)
same,GI50,NCI/ADR-RES,> 100 µM (inactive)
same,GI50,OVCAR-3,> 100 µM (inactive)
same,GI50,OVCAR-4,34.6 µM (inactive)
same,GI50,OVCAR-5,> 100 µM (inactive)
same,GI50,OVCAR-8,> 100 µM (inactive)
same,GI50,PC-3,> 100 µM (inactive)
same,GI50,RPMI-8226,> 100 µM (inactive)
same,GI50,RXF 393,> 100 µM (inactive)
same,GI50,SF-268,2.88 µM (inactive)
same,GI50,SF-295,> 100 µM (inactive)
same,GI50,SF-539,20 µM (inactive)
same,GI50,SK-MEL-28,29.2 µM (inactive)
same,GI50,SK-MEL-2,> 100 µM (inactive)
same,GI50,SK-MEL-5,> 100 µM (inactive)
same,GI50,SK-OV-3,> 100 µM (inactive)
same,GI50,SN12C,> 100 µM (inactive)
same,GI50,SNB-19,56.8 µM (inactive)
same,GI50,SNB-75,5.83 µM (inactive)
same,GI50,SR,> 100 µM (inactive)
same,GI50,SW-620,> 100 µM (inactive)
same,GI50,T47D,> 100 µM (inactive)
same,GI50,TK-10,> 100 µM (inactive)
same,GI50,U-251,> 100 µM (inactive)
same,GI50,UACC-257,> 100 µM (inactive)
same,GI50,UACC-62,> 100 µM (inactive)
same,GI50,UO-31,> 100 µM (inactive)
COC1(OC)N=C(N)C2(C#N)/C(=N/N(C)C)CC(C)C12C#N (stereo not drawn),GI50,786-0,> 100 µM (inactive)
same,GI50,A498,> 100 µM (inactive)
same,GI50,A549,> 100 µM (inactive)
same,GI50,ACHN,> 100 µM (inactive)
same,GI50,CAKI-1,> 100 µM (inactive)
same,GI50,CCRF-CEM,> 100 µM (inactive)
same,GI50,COLO 205,> 100 µM (inactive)
same,GI50,DU-145,> 100 µM (inactive)
same,GI50,EKVX,> 100 µM (inactive)
same,GI50,HCC 2998,> 100 µM (inactive)
same,GI50,HCT-116,> 100 µM (inactive)
same,GI50,HCT-15,> 100 µM
same,GI50,HL-60,> 100 µM (inactive)
same,GI50,HOP-62,> 100 µM (inactive)
same,GI50,HOP-92,> 100 µM (inactive)
same,GI50,HT-29,> 100 µM (inactive)
same,GI50,Hs-578T,> 100 µM (inactive)
same,GI50,IGROV-1,> 100 µM (inactive)
same,GI50,K562,> 100 µM (inactive)
same,GI50,KM12,> 100 µM (inactive)
same,GI50,LOX IMVI,> 100 µM (inactive)
same,GI50,M14,> 100 µM (inactive)
same,GI50,MCF7,> 100 µM (inactive)
same,GI50,MDA-MB-231,> 100 µM (inactive)
same,GI50,MDA-MB-435,> 100 µM (inactive)
same,GI50,MDA-N,> 100 µM (inactive)
same,GI50,MOLT-4,> 100 µM (inactive)
same,GI50,Malme-3M,> 100 µM (inactive)
same,GI50,NCI-H226,> 100 µM (inactive)
same,GI50,NCI-H23,> 100 µM (inactive)
same,GI50,NCI-H522,> 100 µM (inactive)
same,GI50,NCI/ADR-RES,> 100 µM (inactive)
same,GI50,OVCAR-5,> 100 µM (inactive)
same,GI50,OVCAR-8,> 100 µM (inactive)
same,GI50,PC-3,> 100 µM (inactive)
same,GI50,RPMI-8226,> 10 µM (inactive)
same,GI50,RXF 393,> 100 µM (inactive)
same,GI50,SF-268,> 100 µM (inactive)
same,GI50,SF-295,> 100 µM (inactive)
same,GI50,SF-539,> 100 µM (inactive)
same,GI50,SK-MEL-28,> 100 µM (inactive)
same,GI50,SK-MEL-2,> 100 µM (inactive)
same,GI50,SK-MEL-5,> 100 µM (inactive)
same,GI50,SK-OV-3,> 100 µM (inactive)
same,GI50,SN12C,> 100 µM (inactive)
same,GI50,SNB-19,> 100 µM (inactive)
same,GI50,SNB-75,71.9 µM (inactive)
same,GI50,SR,> 100 µM (inactive)
same,GI50,SW-620,> 100 µM (inactive)
same,GI50,T47D,> 100 µM (inactive)
same,GI50,TK-10,> 100 µM (inactive)
same,GI50,U-251,> 100 µM (inactive)
same,GI50,UACC-257,> 100 µM (inactive)
same,GI50,UACC-62,> 100 µM (inactive)
same,GI50,UO-31,> 100 µM (inactive)
